Experimental findings from patent US4346087A, “Antibacterial surface active agent containing azaalkenelactam” (priority 1979, dated 1982) are described below.

Common to all, as to type: cell-based
Assay [1] concerns Pseudomonas aruginosa IFO 3443. Kind of assay: MIC against Pseudomonas aeruginosa. Particulars: Table 3; heart infusion agar, 37° C., 24 hours. An excerpt: (§1) Below are described the antibacterial activities of the compounds in the compositions according to this invention. The results of antibacterial activity tests on the N-alkyl-substituted azaalkenelactams and their derivatives having a carboxylate radical of Examples 1 to 70 were as shown in Tables 1 to 3.
(§2) The testing method complied with the standard method of Japan Sociaty of Chemotherapy.

Assay [2] relates to Staphylococcus epidermidis. Kind of assay: MIC against Staphylococcus epidermidis. The settings on record: Table 3; heart infusion agar, 37° C., 24 hours.
From the text: as §1, §2

The subject of assay [3] is Staphylococcus aureus FDA 209P. Kind of assay: MIC against Staphylococcus aureus FDA 209P.
From the text: (§3) Below are described the antibacterial activities of the compounds in the compositions according to this invention.
as §2

Assay [4] relates to Desulfovibrio desulfuricans IFO 13699. Kind of assay: MIC against Desulfovibrio desulfuricans.
From the text: as §3, §2

A further assay relates to Pasteurella multocida. In words: MIC against Pasteurella multocida. The settings on record: Table 3; heart infusion agar, 37° C., 24 hours.
From the text: as §1, §2

In a further assay the test system is Streptococcus faecalis. In words: MIC against Streptococcus faecalis. Particulars: Table 3; heart infusion agar, 37° C., 24 hours.
From the text: as §1, §2

For another assay, the system named is Escherichia coli NIHJ. Kind of assay: MIC against Escherichia coli NIHJ.
From the text: as §3, §2

The test system of assay [5] is Bacillus subtilis ATCC 6633. Kind of assay: MIC against Bacillus subtilis ATCC 6633. Particulars: Table 3; heart infusion agar, 37° C., 24 hours.
From the text: as §1, §2

The mark [6] stands for this setting: Table 1, azaalkenelactams, heart infusion agar, 37° C., 24 hours.
The mark [7] stands for this setting: Staphylococcus aureus, FDA209P, 24 h.
Setting [8] is: Desulfovibrio desulfuricans, IFO13699, 24 h.
Setting [9] is: Escherichia coli, Table 2, derivatives having a carboxylate radical, heart infusion agar, 37° C., 24 hours, read-out: MIC.

≈ marks a conversion by molar mass, not a printed value. Read-outs that look alike come from different tables or passages of the source. Bounds are passed on as bounds.

“4-(2-hydroxyhexadecyl)aminoethyl-6-methyl-3,6-dihydro-2H-1,4-diazepin-5-one [Example 41]”: the MIC was 100 µg/mL in assay [1]; 1.56 µg/mL in assay [2]; 3.12 µg/mL in assay [3] (setting [6]); 3.12 µg/mL in assay [4] (setting [6]); less than 1.56 µg/mL in the assay with Pasteurella multocida; 6.25 µg/mL in the assay on Streptococcus faecalis. Also, the MIC against Escherichia coli NIHJ is 25 µg/mL; in assay [5], 3.12 µg/mL.
Turning to “4-behenoyloxypropyl-6-methyl-2,3,6,7-tetrahydro-1,4-diazocin-5-one [Example 68]”, the MIC in assay [3] is 100 µg/mL; in assay [4], 25 µg/mL; with Escherichia coli NIHJ it was 200 µg/mL.
Turning to `CCCCCCCCCCCCNCCNCCN1CC[N+](CC(=O)[O-])=C(C)CC1=O` [4-dodecylaminoethylaminoethyl-1-azonia-4-azacyclohept-7-en-5-one-1-acetate], the MIC came to 12.5 µg/mL (≈ 28.5 µM) in assay [3] (setting [7]); 6.25 µg/mL (≈ 14.2 µM) in assay [4] (setting [8]); 100 µg/mL (≈ 228 µM) with Escherichia coli NIHJ (Escherichia coli, 24 h).
In the case of `CCCCCCCCCCCCCCCCCCCCCC(=O)OCCCN1CCCN=CC(C)C1=O` (centres unmarked) [Example 51, 1-behenoyloxypropyl-3-methyl-3,6,7,8-tetrahydro-1,5-diazocin-2-one], the MIC in assay [3] (setting [6]) came out at 25 µg/mL (≈ 48 µM); in assay [4] it was 12.5 µg/mL (≈ 24 µM); against Escherichia coli NIHJ (setting [6]) it was 100 µg/mL (≈ 192 µM).
Turning to `CCCCCCCCCCC(O)CN1CCN=C(C)CC1=O` (centres unmarked) [Example 26, 4-(2-hydroxy)dodecyl-7-methyl-3,6-dihydro-2H-1,4-diazepin-5-one], the MIC came to 50 µg/mL (≈ 161 µM) in assay [3] (setting [7]); 12.5 µg/mL (≈ 40.3 µM) in assay [4] (setting [8]); 50 µg/mL (≈ 161 µM) in the assay with Escherichia coli NIHJ (Escherichia coli, 24 h).
For `CCCCCCCC/C=C\CCCCCCCC(=O)OCCN1CCN=C(C)CC1=O` [Example 13, 4-oleoyloxyethyl-7-methyl-3,6-dihydro-2H-1,4-diazepin-5-one], the MIC in assay [3] (setting [7]) is 100 µg/mL (≈ 230 µM); in assay [4] (setting [8]), 12.5 µg/mL (≈ 28.8 µM); in the assay with Escherichia coli NIHJ (Escherichia coli, Table 1, azaalkenelactams, heart infusion agar, 37° C., 24 hours, read-out: MIC), 1600 µg/mL (≈ 3680 µM).
As to `CCCCCCCCCCCCN1CC[N+](CC(=O)[O-])=C(C)CC1=O` [4-dodecyl-7-methyl-1-azonia-4-azacyclohept-7-en-5-on-1-acetate], the MIC stood at 50 µg/mL (≈ 142 µM) in assay [3] (setting [7]), 12.5 µg/mL (≈ 35.5 µM) in assay [4] (setting [8]) and 3200 µg/mL (≈ 9080 µM) in the assay with Escherichia coli NIHJ (setting [9]).
For `CCCCCCCCCCCCCCCCCCCCCCNCCN1CC[N+](CC(=O)[O-])=C(C)CC1=O` [4-docosylaminoethyl-7-methyl-1-azonia-4-azacyclohept-7-en-5-one-1-acetate], the MIC in assay [3] (setting [7]) came to 12.5 µg/mL (≈ 23.3 µM); in assay [4] (setting [8]) it was 12.5 µg/mL (≈ 23.3 µM); in the assay with Escherichia coli NIHJ (setting [9]), 3200 µg/mL (≈ 5970 µM).
As to `CCCCCCCCCCCCOCC(O)CN1CCCN=C(C)CC1=O` (centres unmarked) [Example 33, 1-docoxy(2-hydroxy)propyl-4-methyl-3,6,7,8-tetrahydro-1,5-diazocin-2-one], the minimal inhibitory concentration (MIC) in assay [3] (setting [7]) is 25 µg/mL (≈ 65.3 µM); in assay [4] (setting [8]) it was 25 µg/mL (≈ 65.3 µM); in the assay with Escherichia coli NIHJ (Escherichia coli, 24 h), 400 µg/mL (≈ 1050 µM).
For “4-isostearamidoethyl-7-methyl-1-azonia-4-azacyclohept-7-en-5-one-1-acetate”, the MIC in assay [3] was 50 µg/mL; in assay [4], 25 µg/mL; against Escherichia coli NIHJ (Table 2, derivatives having a carboxylate radical, heart infusion agar, 37° C., 24 hours), 3200 µg/mL.
For `CCCCCCCCCCCCCCNCCN1CC[N+](C(C)C(=O)[O-])=CCC(C)C1=O` (centres unmarked), the MIC in assay [3] (setting [7]) was 6.25 µg/mL (≈ 13.8 µM); in assay [4] (setting [8]) it was 6.25 µg/mL (≈ 13.8 µM); against Escherichia coli NIHJ (Escherichia coli, 24 h), 100 µg/mL (≈ 221 µM).

One may read the MIC as the lowest concentration that inhibits growth of the organism.
